Tests used:
[1] = system: Human immunodeficiency virus 1; assay: Antiviral activity against HIV-1 harboring reverse transcriptase Y181C mutant infected in human MT4 cells assessed as protection against virus-induced cytopathic effect incubated for 5 days by MTT assay; details: Human immunodeficiency virus 1, MT4, 120 h
[2] = Selectivity index, ratio of CC50 for human MT4 cells to EC50 for antiviral activity against HIV-1 IIIB infected in human MT4 cells; assay type: toxicity, cell-based; details: MT4 cells (uninfected and infected with HIV-1 IIIB), read-out: Ratio CC50/EC50
[3] = system: Human immunodeficiency virus 1; assay: Antiviral activity against HIV-1 harboring reverse transcriptase Y188L mutant infected in human MT4 cells assessed as protection against virus-induced cytopathic effect incubated for 5 days by MTT assay; details: Human immunodeficiency virus 1, MT4, 120 h
[4] = target: Human immunodeficiency virus type 1 reverse transcriptase (Human immunodeficiency virus 1, UniProt Q72547); assay: Inhibition of wild type HIV-1 reverse transcriptase using biotin-labelled dNTPs as substrate incubated for 2 hrs by ELISA
[5] = Selectivity index, ratio of CC50 for human MT4 cells to EC50 for antiviral activity against HIV-1 IIIB harboring K103N/Y181C double mutant infected in human MT4 cells; assay type: toxicity, cell-based; details: read-out: Ratio CC50/EC50
[6] = Cytotoxicity against human MT4 cells assessed as reduction in cell viability incubated for 5 days by MTT assay; assay type: toxicity, cell-based; details: time 5 day
[7] = system: Human immunodeficiency virus 1; assay: Antiviral activity against HIV-1 harboring reverse transcriptase E138K mutant infected in human MT4 cells assessed as protection against virus-induced cytopathic effect incubated for 5 days by MTT assay; details: Human immunodeficiency virus 1, MT4, 120 h
[8] = system: Human immunodeficiency virus 1; assay: Antiviral activity against HIV-1 IIIB infected in human MT4 cells assessed as protection against virus-induced cytotoxicity incubated for 5 days by MTT assay; assay type: functional, organism-based; details: Human immunodeficiency virus 1, IIIB, MT4, 120 h
[9] = system: Human immunodeficiency virus 1; assay: Antiviral activity against HIV-1 harboring reverse transcriptase F227L/V106A mutant infected in human MT4 cells assessed as protection against virus-induced cytopathic effect incubated for 5 days by MTT assay; details: Human immunodeficiency virus 1, MT4, 120 h
[10] = system: Human immunodeficiency virus 1; assay: Antiviral activity against HIV1 L1001 infected in human MT4 cells assessed as protection against virus-induced cytopathic effect incubated for 5 days by MTT assay; assay type: functional, organism-based; details: Human immunodeficiency virus 1, L1001, MT4, 120 h
[11] = system: Human immunodeficiency virus 1; assay: Antiviral activity against HIV-1 harboring reverse transcriptase K103N mutant infected in human MT4 cells assessed as protection against virus-induced cytopathic effect incubated for 5 days by MTT assay; details: Human immunodeficiency virus 1, MT4, 120 h
[12] = system: Human immunodeficiency virus 1; assay: Antiviral activity against HIV-1 IIIB harboring K103N/Y181C double mutant infected in human MT4 cells assessed as protection against virus-induced cytotoxicity incubated for 5 days by MTT assay; assay type: functional, organism-based; details: Human immunodeficiency virus 1, IIIB, MT4, 120 h
[13] = system: Human immunodeficiency virus 1; assay: Antiviral activity against HIV-1 IIIB; assay type: functional, organism-based; details: Human immunodeficiency virus 1, IIIB
[14] = Selectivity index, ratio of CC50 for human MT4 cells to EC50 for antiviral activity against HIV-1 IIIB; assay type: toxicity; details: read-out: Ratio CC50/EC50
[15] = system: Human immunodeficiency virus 1; assay: Antiviral activity against HIV-1 IIIB harboring K103N/Y181C double mutant; assay type: functional, organism-based; details: Human immunodeficiency virus 1, IIIB
[16] = Selectivity index, ratio of CC50 for human MT4 cells to EC50 for antiviral activity against HIV-1 IIIB harboring K103N/Y181C double mutant; assay type: toxicity; details: read-out: Ratio CC50/EC50
[17] = Cytotoxicity against human MT4 cells; assay type: toxicity, cell-based
[18] = Aqueous solubility of the compound at pH 7.0 by HPLC analysis; assay type: physicochemical; details: buffer
[19] = Aqueous solubility of the compound at pH 7.4 by HPLC analysis; assay type: physicochemical; details: buffer

Compound | selectivity ratio [2] | EC50 [3] [nM] | IC50 [4] [nM] | selectivity ratio [5] | CC50 at 120 h [6] [nM] | EC50 [7] [nM] | EC50 [8] [nM] | EC50 [9] [nM] | EC50 [11] [nM] | EC50 [12] [nM] | other results
Cc1cc(/C=C/C#N)cc(C)c1Oc1nc(NC2CCN(Cc3ccc(S(C)(=O)=O)cc3)CC2)nc2c1COC2 | 2260 | 41.4 | 150 | 283 | 9790 | 15.4 | 4.33 | 16.3 | 6.47 | 34.6 | EC50 [1]: 9.96 nM; EC50 [10]: 5.18 nM
Cc1cc(/C=C/C#N)cc(C)c1Oc1nc(Nc2ccc(N3CCC(NS(C)(=O)=O)C3)cc2)nc2c1COC2 (configuration not stated) |  |  | 180 |  |  |  |  |  |  |  | 
Cc1cc(/C=C/C#N)cc(C)c1Oc1nc(Nc2ccc(C#N)cc2)nc2c1COC2 |  |  | 60 |  |  |  |  |  |  |  | 
Cc1cc(/C=C/C#N)cc(C)c1Oc1nc(NC2CCN(c3ccc(S(C)(=O)=O)cc3)CC2)nc2c1COC2 | 16500 |  | 70 | 87 | 104000 |  | 6.3 |  |  | 1200 | 
Cc1cc(/C=C/C#N)cc(C)c1Oc1nc(NC2CCN(Cc3ccc([N+](=O)[O-])cc3)CC2)nc2c1COC2 | 801 | 94 | 180 | 103 | 6670 | 21.7 | 8.32 | 60.5 | 7.78 | 65 | EC50 [1]: 26.8 nM; EC50 [10]: 10.4 nM
Cc1cc(/C=C/C#N)cc(C)c1Oc1nc(Nc2ccc(N3CCN(S(C)(=O)=O)CC3)cc2)nc2c1COC2 |  |  | 180 |  |  |  |  |  |  |  | 
Cc1cc(/C=C/C#N)cc(C)c1Oc1nc(Nc2ccc(N3CCCC(NS(C)(=O)=O)C3)cc2)nc2c1COC2 (configuration not stated) |  |  | 1240 |  |  |  |  |  |  |  | 
Cc1cc(/C=C/C#N)cc(C)c1Oc1nc(NC2CCN(Cc3ccc(N)cc3)CC2)nc2c1COC2 | 8020 | 51.4 | 190 | 505 | 27000 | 9.16 | 3.37 | 37.6 | 5.58 | 53.5 | EC50 [1]: 9.36 nM; EC50 [10]: 10.2 nM
Cc1cc(/C=C/C#N)cc(C)c1Oc1nc(NC2CCN(Cc3ccc(C(F)(F)F)cc3)CC2)nc2c1COC2 | 256 | 282 | 360 | 26 | 5010 | 129 | 19.5 | 199 | 30.1 | 190 | EC50 [1]: 65.6 nM; EC50 [10]: 34.5 nM
Cc1cc(/C=C/C#N)cc(C)c1Oc1nc(Nc2ccc(C3CCCN(S(N)(=O)=O)CC3)cc2)nc2c1COC2 (configuration not stated) |  |  | 90 |  |  |  |  |  |  |  | 
Cc1cc(/C=C/C#N)cc(C)c1Oc1nc(NC2CCN(c3ccc(N)cc3)CC2)nc2c1COC2 | 258 |  | 180 | 37 | 9140 |  | 35.4 |  |  | 249 | 
Cn1c(Cn2ccc(C(F)(F)F)c(Oc3cc(Cl)cc(C#N)c3)c2=O)n[nH]c1=O [DORAVIRINE] |  |  |  |  |  |  |  |  |  |  | EC50 [13]: 13.3 nM; selectivity ratio [14]: > 21800; EC50 [15]: 14.5 nM; selectivity ratio [16]: > 20100; CC50 [17]: > 293000 nM
Cc1cc(C#N)cc(C)c1Oc1nc(Nc2ccc(C#N)cc2)nc(N)c1Br [ETRAVIRINE] | > 1170 | 48.7 |  | > 64 | > 4590 | 15.4 |  | 21.4 | 4.65 | 72.3 | solubility [18]: < 1 µg/mL; solubility [19]: < 1 µg/mL
Cc1cc(/C=C/C#N)cc(C)c1Nc1ccnc(Nc2ccc(C#N)cc2)n1 [RILPIVIRINE] |  |  |  |  |  |  |  |  |  |  | solubility [18]: < 1 µg/mL; solubility [19]: < 1 µg/mL

— ChEMBL document CHEMBL5038655, “Development of Novel Dihydrofuro[3,4-d]pyrimidine Derivatives as HIV-1 NNRTIs to Overcome the Highly Resistant Mutant Strains F227L/V106A and K103N/Y181C” (J Med Chem, 2022)
